From article PMC3744530, “CTA095, a Novel Etk and Src Dual Inhibitor, Induces Apoptosis in Prostate Cancer Cells and Overcomes Resistance to Src Inhibitors” (PLoS ONE, 2013)

What was measured:
PC3 cells = assay: Flow cytometry: PI staining and Annexin V-FITC apoptosis; assay type: cell-based, human; conditions: PC3, 24 h
Procedure: PC3 cells were treated with 0.1% DMSO (control) and CTA095 at the indicated concentrations for 24 h. Cell cycle arrest was determined by the incorporation of propidium iodide (Sigma-Aldrich) into permeabilized cells. Cells undergoing apoptosis were identified using an Annexin V-FITC kit (Abcam), following the manufacturer's instructions. The cells were analyzed using a Coulter Epics XL flow cytometer (Beckman Coulter, Miami, FL).
Figure 7 Induction of apoptosis of PC3 cells following treatment with CTA095. PC3 cells were seeded at 10^6 cells/ml (2 ml) in a 6-well plate overnight and then treated with CTA095 at the indicated concentrations for 24 h. Cell cycle arrest was analyzed using PI staining (A). Apoptosis was analyzed using Annexin-V FITC apoptosis detection kit (B). Caspase 9 activation was measured using western blot (D). For caspase 3/7 activity, PC3 cells were seeded at 5000 cells/well in 96 well plate overnight and treated with CTA095 at 0–10 μM for 24 h. Caspase-3/7 activities were measured using the Apo-ONE Homogeneous Caspase-3/7 Assay kit (Promega, Madison, WI) according to the manufacturer's instruction. Columns, mean; bars, standard deviation, n = 3. […] TEXT PRINTED IN THE PICTURE: (A) CTA095: 4.3% (0 μM); 6.9% (5 μM); 44.0% (10 μM) DOUBTS OF THE COPYIST ABOUT THIS PICTURE: Panel A prints no substance label. […]

CWR22Rv1 cells = assay: MTT growth inhibition assay; assay type: cell-based; conditions: Homo sapiens, 72 h
Procedure: (§1) Cells were seeded in 96-well plates and cultured overnight, followed by treatment with 0.1% DMSO, as the vehicle control, and CTA095, at the indicated concentrations for 72 h. Growth inhibition was measured using a 3-(4,5-Dimethylthiazol-2-yl)-2,5-diphenyltetrazolium bromide (MTT) assay (Roche Diagnostic, Mannheim, Germany).
(§2) Figure 5 Growth Inhibition of CTA095 to LNCAP, CWR22Rv1, PC3 prostate cancer and normal prostate (RWPE1) cells. Cells were seeded at 5,000 cells/well in 96-well plate overnight and treated with CTA095 at the indicated concentrations. The cell viability was measured using MTT assay after 72 h. dots, mean; bars, standard deviation, n = 3.

RWPE1 cells = assay: MTT growth inhibition assay; assay type: cell-based; conditions: Homo sapiens, RWPE-1, RWPE1 normal prostate cells, 72 h
Procedure: as §1, §2

LNCAP cells = assay: MTT growth inhibition assay; assay type: cell-based; conditions: Homo sapiens, 72 h
Procedure: as §1, §2

Solubility in water = assay type: physicochemical
[1] = test system: pEtk, pSrc, pSTAT3, Myc and BCL2 in PC3-AZD20 cells; assay: Western blot of pEtk, pSrc, pStat3, Myc and BCL2; assay type: cell-based, human; conditions: PC3-AZD20, 10 μM
Procedure: PC3-AZD20 cells were seeded at 10^6 cells/well in 6 well plates overnight. The cells were treated with AZD0530 or CTA095 at 10 μM. Apoptosis was analyzed using Annexin-V FITC apoptosis detection kit. The mRNA levels of Myc and BCL2 were measured using real-time PCR. pEtk, Etk, pSrc, Src, pStat3, Stat3, Myc and BCL2 levels were measured using the corresponding antibodies through a Western blot.
Figure 12 CTA095 induces apoptosis in Src inhibitor resistant prostate cancer cells through Myc and BCL2 inhibition. PC3-AZD20 (PC3 cell resistant to 20 μM AZD0530) cells were seeded at 10^6 cells/well in 6 well plates overnight. The cells were treated with AZD0530 or CTA095 at 10 μM. Apoptosis was analyzed using Annexin-V FITC apoptosis detection kit (A). The mRNA levels of Myc and BCL2 were measured using real-time PCR (B). pEtk, Etk, pSrc, Src, pStat3, Stat3, Myc and BCL2 levels were measured using the corresponding antibodies through Western blot (C). Columns, mean; bars, standard deviation, n = 3.

Btk = target: T1, Btk (Homo sapiens, UniProt Q06187); assay: Kinase inhibition assay (TLC; Kinase-Glo in Figure S2); assay type: biochemical
T1 construct: purchased Millipore Inc (Dundee, UK)
T1 sequence (Q06187 whole entry): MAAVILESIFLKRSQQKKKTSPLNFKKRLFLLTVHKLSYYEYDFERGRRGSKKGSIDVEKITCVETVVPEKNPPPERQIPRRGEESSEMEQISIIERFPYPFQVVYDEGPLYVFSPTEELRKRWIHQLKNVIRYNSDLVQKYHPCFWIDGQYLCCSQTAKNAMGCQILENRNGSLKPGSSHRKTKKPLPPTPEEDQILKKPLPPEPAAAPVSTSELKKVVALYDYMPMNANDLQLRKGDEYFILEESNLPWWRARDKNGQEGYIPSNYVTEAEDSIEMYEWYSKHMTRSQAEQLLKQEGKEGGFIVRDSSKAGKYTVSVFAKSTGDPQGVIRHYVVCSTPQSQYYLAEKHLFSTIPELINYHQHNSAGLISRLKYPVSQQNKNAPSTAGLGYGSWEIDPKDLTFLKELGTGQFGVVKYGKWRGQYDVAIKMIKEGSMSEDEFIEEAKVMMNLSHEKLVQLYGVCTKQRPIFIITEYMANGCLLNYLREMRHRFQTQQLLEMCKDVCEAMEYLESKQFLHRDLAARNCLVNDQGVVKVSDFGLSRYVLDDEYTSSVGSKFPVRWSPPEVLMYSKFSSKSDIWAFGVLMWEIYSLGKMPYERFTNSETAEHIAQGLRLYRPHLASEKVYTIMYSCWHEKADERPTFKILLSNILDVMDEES
Procedure: Kinase inhibition was measured using thin-layer-chromatography (TLC). Briefly, purified kinases (20 nM), the corresponding substrate (500 µM, TSFYGRH for Etk, YIYGSFK for the other kinases), and CTA095 (0–10 µM) were incubated in a kinase reaction (100 mM Hepes, pH 7.4, 10 mM MnCl2, 10 mM MgCl2, 1 mM DTT) for 5 min, and the reaction was started by adding 5 μCi ^33P-labeled ATP. The reaction (10 µl) was incubated at room temperature for 1 h and was stopped by adding 10 μL H3PO4. The radioactivity of the peptide substrate was analyzed using TLC as previously described.
Having isolated a small molecule that inhibits Etk, the next logical step was to determine its specificity for this enzyme. To accomplish this, purified Etk, Btk, Src and Yes were incubated in a kinase reaction buffer with CTA095 (0–1 μM) in the presence of ^33P-labeled ATP and a peptide (YIYGSFK), previously shown to be an excellent substrate for both BTK and Src family kinases. The kinase activity was measured using TLC technique.
Supplementary file pone.0070910.s002.tif: Figure S2 Inhibition of Btk by CTA095. Purified Btk (20 nM), CTA095 (0–100 μM), ATP (500 μM) and the peptide substrate (YIYGSFK) were incubated in a kinase reaction. The kinase activity was measured using Kinase-Glo assay kit (Promega Inc.) following the manufacture's instruction. Columns, mean; bars, standard deviation, n = 3. […]

caspase 9 in PC3 cells = assay: Caspase 9 activation (Western blot); assay type: cell-based, human; conditions: PC3, 0–10 μM, 24 h
Procedure: For caspase 3/7 activities, PC3 cells were seeded at 5,000 cells/well in 96-well plate overnight. Then the cells were treated with 0–10 μM CTA095 for 24 h. Caspase-3/7 activities were measured using the Apo-ONE Homogeneous Caspase-3/7 Assay kit (Promega, Madison, WI) according to the manufacturer's instruction. For caspase 9 activity, PC3 cells were seeded in 10 mm tissue culture plate and grew to 50% confluence. Cells were then treated with 0–10 μM CTA095 for 24 h. Cells were harvested and caspase 9 activity was measured using a Western blot with an anti-caspase 9 antibody.
Figure 7 Induction of apoptosis of PC3 cells following treatment with CTA095. PC3 cells were seeded at 10^6 cells/ml (2 ml) in a 6-well plate overnight and then treated with CTA095 at the indicated concentrations for 24 h. Cell cycle arrest was analyzed using PI staining (A). Apoptosis was analyzed using Annexin-V FITC apoptosis detection kit (B). Caspase 9 activation was measured using western blot (D). For caspase 3/7 activity, PC3 cells were seeded at 5000 cells/well in 96 well plate overnight and treated with CTA095 at 0–10 μM for 24 h. Caspase-3/7 activities were measured using the Apo-ONE Homogeneous Caspase-3/7 Assay kit (Promega, Madison, WI) according to the manufacturer's instruction. Columns, mean; bars, standard deviation, n = 3. […]

IC50 (LNCAP cells): 3.8 µM
solubility in water (Solubility in water): highly insoluble in water
IC50 (Btk): > 10 µM
Structure (SMILES): O=c1[nH]c2cc3nc(-c4ccc5oc6ccccc6c5c4)n(CCCN4CCCCC4)c3cc2nc1-c1ccccc1 [CTA095, 2-(dibenzo[b,d]furan-2-yl)-7-phenyl-1-(3-(piperidin-1-yl)propyl)-1H-imidazo[4,5-g]quinoxalin-6(5H)-one]
apoptosis (Annexin-V reactivity) (PC3 cells): dose-dependent increase of apoptosis
IC50 (CWR22Rv1 cells): 4.2 µM
IC50 (RWPE1 cells): 7.9 µM
pEtk, pSrc, pSTAT3, Myc and BCL2 protein levels [1]: all down regulated
activation of caspase 9 (caspase 9 in PC3 cells): dose dependent activation
